Holding throughout (type): binding
The target in assay [1] is PhACO1 (Petunia x hybrida, UniProt Q08506, R244A). The experiment in a line: isothermal titration calorimetry. (In ITC the heat of successive injections is recorded.)
Assay [2] has as its target PhACO1 (Petunia x hybrida, UniProt Q08506). The experiment in a line: isothermal titration calorimetry.
In a further assay the target is AtACO2 (Arabidopsis thaliana, UniProt Q41931). The experiment in a line: intrinsic tryptophan fluorescence quenching. To be noted: 5 µM enzyme, Ni(II), 50 mM Tris pH 7.5, 28 °C; negative control (non-binder).
AtACO2, sequence (Q41931 whole entry): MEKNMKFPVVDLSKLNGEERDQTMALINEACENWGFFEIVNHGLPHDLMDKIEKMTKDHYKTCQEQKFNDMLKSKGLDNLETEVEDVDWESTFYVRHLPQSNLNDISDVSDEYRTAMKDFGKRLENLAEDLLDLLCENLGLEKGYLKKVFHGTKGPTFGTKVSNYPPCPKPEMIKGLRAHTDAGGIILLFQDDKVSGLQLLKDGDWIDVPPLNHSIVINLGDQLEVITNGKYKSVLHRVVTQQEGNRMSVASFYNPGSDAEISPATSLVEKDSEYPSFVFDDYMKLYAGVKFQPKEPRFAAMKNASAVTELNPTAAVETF

SMILES strings stand for the structures.

PhACO1 (Petunia x hybrida, UniProt Q08506, R244A), sequence (Q08506 whole entry R244A): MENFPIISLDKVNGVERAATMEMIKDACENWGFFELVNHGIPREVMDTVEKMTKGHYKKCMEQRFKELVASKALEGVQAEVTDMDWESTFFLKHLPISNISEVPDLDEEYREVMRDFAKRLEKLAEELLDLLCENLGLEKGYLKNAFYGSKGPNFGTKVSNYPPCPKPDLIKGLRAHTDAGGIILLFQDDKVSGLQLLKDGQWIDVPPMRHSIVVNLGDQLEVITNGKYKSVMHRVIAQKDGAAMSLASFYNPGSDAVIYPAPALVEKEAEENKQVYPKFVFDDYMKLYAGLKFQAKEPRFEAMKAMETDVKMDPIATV
PhACO1 (Petunia x hybrida, UniProt Q08506), sequence (Q08506 whole entry): as the sequence (Q08506 whole entry R244A) above, with A244R counted along it

As for `O=C(O)c1cnccn1` [POA], the Kd – broadly, a measure of binding affinity in units of concentration – at PhACO1 [1] worked out at 104 µM; on PhACO1 [2], 69.5 µM.

For the molecule `O=C(O)c1ccccc1` [benzoic acid], the “intrinsic tryptophan fluorescence quenching” value on AtACO2 is “benzoic acid did not quench fluorescence”.
